Measurements as given in ChEMBL document CHEMBL5532748, “Design, synthesis and antibacterial activity evaluation of ebselen derivatives in NDM-1 producing bacteria” (RSC Med Chem, 2024).
Calls of active or inactive are those of the source. The calls are words filed in the database; no cut-off is given here.

Legend:
[1] = system: Escherichia coli; assay: Antibacterial activity against Escherichia coli TG-1 transfected with Klebsiella pneumoniae full-length NDM-1 beta-lactamase gene; type: functional
[2] = system: Escherichia coli; assay: Antibacterial activity against Escherichia coli TG-1 transfected with Klebsiella pneumoniae full-length NDM-1 beta lactamase gene incubated in presence of meropenem; type: functional
[3] = system: Escherichia coli; assay: Synergistic antibacterial activity against Escherichia coli TG-1 transfected with Klebsiella pneumoniae full-length NDM-1 beta lactamase gene assessed as fractional inhibitory concentration index in presence of meropenem; type: functional
[4] = system: Escherichia coli; assay: Antibacterial activity against Escherichia coli BJE-4 expressing NDM-1 gene; type: functional
[5] = system: Escherichia coli; assay: Antibacterial activity against Escherichia coli BJE-4 expressing NDM-1 gene in presence of meropenem; type: functional
[6] = system: Escherichia coli; assay: Synergistic antibacterial activity against Escherichia coli BJE-4 expressing NDM-1 gene assessed as fractional inhibitory concentration index in presence of meropenem; type: functional
[7] = system: Escherichia coli; assay: Antibacterial activity against Escherichia coli producing NDM-1 and CTX-M-15 beta lactamases; type: functional
[8] = system: Escherichia coli; assay: Antibacterial activity against Escherichia coli producing NDM-1, CTX-M-15 and SHV-12 beta lactamases; type: functional
[9] = system: Citrobacter freundii; assay: Antibacterial activity against Citrobacter freundii producing NDM-1 and SHV-12 beta-lactamases; type: functional
[10] = system: Citrobacter freundii; assay: Antibacterial activity against Citrobacter freundii producing NDM-1, CTX-M-3 and KPC-2 beta-lactamases; type: functional
[11] = system: Enterobacter cloacae; assay: Antibacterial activity against Enterobacter cloacae producing NDM-1, CTX-M-14 and TEM-1 beta-lactamases; type: functional
[12] = system: Enterobacter cloacae; assay: Antibacterial activity against Enterobacter cloacae producing NDM-1, IMP-4 and TEM-1 beta-lactamases; type: functional
[13] = system: Enterobacter cloacae; assay: Antibacterial activity against Enterobacter cloacae producing NDM-1, TEM-1 and SHV-12 beta-lactamases; type: functional
[14] = system: Klebsiella pneumoniae; assay: Antibacterial activity against Klebsiella pneumoniae producing NDM-1, KPC-2 and SHV-12 beta-lactamases; type: functional
[15] = system: Escherichia coli; assay: Antibacterial activity against Escherichia coli producing NDM-1 and CTX-M-15 beta-lactamases in presence of meropenem; type: functional
[16] = system: Escherichia coli; assay: Antibacterial activity against Escherichia coli producing NDM-1, CTX-M-15 and SHV-12 beta-lactamases in presence of meropenem; type: functional
[17] = system: Citrobacter freundii; assay: Antibacterial activity against Citrobacter freundii producing NDM-1 and SHV-12 in presence of meropenem; type: functional
[18] = system: Citrobacter freundii; assay: Antibacterial activity against Citrobacter freundii producing NDM-1, CTX-M-3 and KPC-2 beta-lactamases in presence of meropenem; type: functional
[19] = system: Enterobacter cloacae; assay: Antibacterial activity against Enterobacter cloacae producing NDM-1, CTX-M-14 and TEM-1 beta-lactamases in presence of meropenem; type: functional
[20] = system: Enterobacter cloacae; assay: Antibacterial activity against Enterobacter cloacae producing NDM-1, IMP-4 and TEM-1 beta-lactamases in presence of meropenem; type: functional
[21] = target: Metallo-beta-lactamase type 2 (Bacteria) (UniProt C7C422); assay: Binding affinity to wild type NDM-1 (unknown origin) assessed as change in NDM-1 enzyme complex at 100 uM by ESI-MS analysis
Sequence of Metallo-beta-lactamase type 2 (Bacteria) (C7C422 whole entry): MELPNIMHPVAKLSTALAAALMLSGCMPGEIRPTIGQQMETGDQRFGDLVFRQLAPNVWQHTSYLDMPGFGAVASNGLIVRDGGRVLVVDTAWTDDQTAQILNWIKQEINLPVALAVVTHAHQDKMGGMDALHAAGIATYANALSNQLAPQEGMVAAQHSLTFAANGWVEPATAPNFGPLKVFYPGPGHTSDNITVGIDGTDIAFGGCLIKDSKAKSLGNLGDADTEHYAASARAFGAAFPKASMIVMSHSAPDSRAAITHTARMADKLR

[22] = system: Enterobacter cloacae; assay: Antibacterial activity against Enterobacter cloacae producing NDM-1, TEM-1 and SHV-12 beta-lactamase in presence of meropenem; type: functional
[23] = system: Klebsiella pneumoniae; assay: Antibacterial activity against Klebsiella pneumoniae producing NDM-1, KPC-2 and SHV-12 beta-lactamases in presence of meropenem; type: functional
[24] = system: Escherichia coli; assay: Synergistic antibacterial activity against Escherichia coli producing NDM-1 and CTX-M-15 beta-lactamases assessed as fractional inhibitory concentration index in presence of meropenem; type: functional
[25] = system: Escherichia coli; assay: Synergistic antibacterial activity against Escherichia coli producing NDM-1, CTX-M-15 and SHV-12 beta-lactamases assessed as fractional inhibitory concentration index in presence of meropenem; type: functional
[26] = system: Citrobacter freundii; assay: Synergistic antibacterial activity against Citrobacter freundii producing NDM-1 and SHV-12 beta-lactamases assessed as fractional inhibitory concentration index in presence of meropenem; type: functional
[27] = system: Citrobacter freundii; assay: Synergistic antibacterial activity against Citrobacter freundii producing NDM-1, CTX-M-3 and KPC-2 beta-lactamases assessed as fractional inhibitory concentration index in presence of meropenem; type: functional
[28] = system: Enterobacter cloacae; assay: Synergistic antibacterial activity against Enterobacter cloacae producing NDM-1, CTX-M-14 and TEM-1 beta-lactamases assessed as fractional inhibitory concentration index in presence of meropenem; type: functional
[29] = system: Enterobacter cloacae; assay: Synergistic antibacterial activity against Enterobacter cloacae producing NDM-1, IMP-4 and TEM-1 beta-lactamases assessed as fractional inhibitory concentration index in presence of meropenem; type: functional
[30] = system: Enterobacter cloacae; assay: Synergistic antibacterial activity against Enterobacter cloacae producing NDM-1, TEM-1 and SHV-12 beta-lactamases assessed as fractional inhibitory concentration index in presence of meropenem; type: functional
[31] = system: Klebsiella pneumoniae; assay: Synergistic antibacterial activity against Klebsiella pneumoniae producing NDM-1, KPC-2 and SHV-12 beta-lactamases assessed as fractional inhibitory concentration index in presence of meropenem; type: functional
[32] = target: Metallo-beta-lactamase type 2 (Bacteria, UniProt C7C422); assay: Inhibition of NDM-1 (unknown origin) using nitrocefin as substrate incubated for 15 to 60 mins by absorption based analysis
Sequence of Metallo-beta-lactamase type 2 (C7C422 whole entry): as above

[33] = system: HEK-293T; assay: Cytotoxicity against HEK293T cells assessed as reduction in cell viability at 8 to 64 ug/ml incubated for 48 hrs by MTT assay; type: toxicity, cell-based; details: human, dose 8-64 µg/ml
[34] = system: Caco-2; assay: Antibacterial activity against Salmonella lomita SL131 infected in human Caco-2 cells assessed as reduction in bacterial survival rate at 64 ug/ml incubated for 6 hrs by agar dilution method; type: functional, cell-based; details: Salmonella enterica subsp. enterica serovar Lomita, dose 64.0 µg/ml
[35] = system: Caco-2; assay: Antibacterial activity against Salmonella lomita SL131 infected in human Caco-2 cells assessed as reduction in bacterial survival rate at 32 to 64 ug/ml incubated for 6 hrs in presence of meropenem by agar dilution method; type: functional, cell-based; details: Salmonella enterica subsp. enterica serovar Lomita, dose 32-64 µg/ml

CC(C)(C)OC(=O)NCCCCCCn1[se]c2ccccc2c1=O
MIC [1]: > 64 µg/mL
MIC [2]: 4 µg/mL
fractional inhibitory concentration index (FICI) [3]: 0.125
MIC [4]: > 16 µg/mL
MIC [5]: 4 µg/mL
fractional inhibitory concentration index (FICI) [6]: 0.313
MIC [7]: > 64 µg/mL
MIC [8]: > 64 µg/mL
MIC [9]: > 64 µg/mL
MIC [10]: > 128 µg/mL
MIC [11]: > 128 µg/mL
MIC [12]: > 64 µg/mL
MIC [13]: > 64 µg/mL
MIC [14]: > 64 µg/mL
MIC [15]: 8 µg/mL
MIC [16]: 8 µg/mL
MIC [17]: 8 µg/mL
MIC [18]: 16 µg/mL
MIC [19]: 8 µg/mL
MIC [20]: 16 µg/mL
Activity [21]: Active
MIC [22]: 4 µg/mL
MIC [23]: 16 µg/mL
fractional inhibitory concentration index (FICI) [24]: 0.25
fractional inhibitory concentration index (FICI) [25]: 0.25
fractional inhibitory concentration index (FICI) [26]: 0.25
fractional inhibitory concentration index (FICI) [27]: 0.375
fractional inhibitory concentration index (FICI) [28]: 0.188
fractional inhibitory concentration index (FICI) [29]: 0.5
fractional inhibitory concentration index (FICI) [30]: 0.125
fractional inhibitory concentration index (FICI) [31]: 0.5
IC50 [32]: 26.8 µM
Activity [33]: Non-Toxic
Activity [34]: inactive
Activity [35]: Active
